According to US20240166626A1, “Compounds and Methods for Preventing, Treating, or Ameliorating Airway Disease” (THOMAS JEFFERSON UNIVERSITY, priority 2021, published 2024):

Biological target: CXCR4 (Homo sapiens, UniProt P61073)
Experiment: BRET analysis of β-arrestin2 interaction with CXCR4 in HEK 293 cells
Type: cell-based
Conditions: 10 μM DFPQ, FIG. 2C
Method: FIGS. 2A-2C: […] Cells were read every 2 min post agonist addition. […]® ADRB2 cells (DiscoveRx) were maintained with the AssayCompleteTM Cell Culture kit (DiscoveRx catalog #92-[…]). […] HEK 293 cells stably overexpressing β2AR included 250 μg/ml G418. Cells were incubated at 37° C. in a humidified incubator with 5% CO2. […] Cells were read every three minutes for 18 minutes on a PolarStar Optima plate reader (BMG) to establish peak signal. […] Plates were incubated in the dark at room temperature for one hour. Luminescence was determined at room temperature (23-25° C.) on a PolarStar Optima plate reader (BMG). […] Screening data analysis and IC50 determination. […] Relative assay bias was calculated from the ratio of normalized cAMP and arrestin recruitment responses. […] BRET was measured using a Tecan Infinite F500 microplate reader. […] Bound [35 S]GTPγS was collected by rapid filtration on GF/B filters, washed 4 times with 4 ml of cold GTPγS wash buffer and analyzed by liquid scintillation counting. […] Immunoprecipitated proteins were separated by SDS-PAGE and analyzed by western blot using a β2AR C-terminal tail or phospho-specific antibody. […] Band intensity was measured by densitometry using ImageJ. […] Absorbance was then measured on a plate reader at 405 nm. […] Lungs were monitored for appropriate inflation. […] Images were analyzed post hoc using the ImageJ software. […] Cell-free area was quantitated using ImageJ. […]

CXCR4, sequence (P61073 whole entry, species assumed): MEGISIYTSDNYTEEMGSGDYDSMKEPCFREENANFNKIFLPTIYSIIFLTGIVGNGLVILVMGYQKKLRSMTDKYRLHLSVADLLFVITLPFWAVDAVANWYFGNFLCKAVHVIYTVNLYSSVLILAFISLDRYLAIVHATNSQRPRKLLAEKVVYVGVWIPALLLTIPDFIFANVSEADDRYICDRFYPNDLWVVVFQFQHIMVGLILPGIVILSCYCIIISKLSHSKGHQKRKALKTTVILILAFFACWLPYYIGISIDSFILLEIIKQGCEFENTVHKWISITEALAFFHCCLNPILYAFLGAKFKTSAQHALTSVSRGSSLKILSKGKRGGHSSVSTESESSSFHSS

**Q.** Fc1ccc(Nc2nc(NC3CCCCC3)c3ccccc3n2)cc1F [DFPQ, N^4-cyclohexyl-N^2-(3,4-difluorophenyl)quinazoline-2,4-diamine] was tested. Which “β-arrestin2 interaction with CXCR4” value did it give?
**A.** The value was “no effect”.
